Experimental data: patent US20240254087A1, “SELECTIVE, PARTIAL, AND ARRESTIN-BIASED 5-HT2A AGONISTS WITH UTILITY IN VARIOUS DISORDERS” (Saint Joseph's University, priority 2021, published 2024)

Key:
[1] = system: 5-HT2A; assay: Ca2+ flux assay, 5-HT2A; type: cell-based, human; conditions: Gq/11 Ca2+ mobilization; higher number = skewed towards 5-HT2A
Procedure: (§1) Cell lines were maintained in DMEM containing 10% FBS, 10 μg/mL Blasticidin (Invivogen), and 100 μg/mL Hygromycin B (GoldBio). At least 20-24 hours before the assay, receptor expression was induced with tetracycline ([…]) and cells were seeded into 384-well poly-L-lysine-coated black plates at a density of 7,500 cells/well in DMEM containing 1% dialyzed FBS. On the day of the assay, the cells were incubated for 1 h at 37° C. with Fluo-4 Direct dye (Invitrogen, 20 μl/well) reconstituted in drug buffer (20 mM HEPES-buffered HBSS, pH 7.4) containing 2.5 mM probenecid. Drug dilutions were prepared at 5X final concentration in McCorvy buffer (20 mM HEPES-buffered HBSS, 0).1% BSA, 0.01% ascorbic acid pH 7.4). After dye load, cells were allowed to equilibrate to room temperature for 15 minutes, and then placed in a FLIPR^TETRA fluorescence imaging plate reader (Molecular Devices). Fluorescence for the FLIPR^TETRA were programmed to read baseline fluorescence for 10 s (1 read/s), and afterward 5 μl of drug per well was added and read for a total of 5-10 min (1 read/s). Fluorescence in each well was normalized to the average of the first 10 reads for baseline fluorescence, and then either maximum-fold peak increase over basal or area under the curve (AUC) was calculated. […] Data was plotted and non-linear regression was performed using “log(agonist) vs. response” in Graphpad Prism 8 to yield Emax and EC50 parameter estimates.

[2] = molecular target: T1, 5-HT1A (Homo sapiens, UniProt P08908); assay: Competitive radioligand binding (NIMH PDSP)
T1 sequence (P08908 1-422): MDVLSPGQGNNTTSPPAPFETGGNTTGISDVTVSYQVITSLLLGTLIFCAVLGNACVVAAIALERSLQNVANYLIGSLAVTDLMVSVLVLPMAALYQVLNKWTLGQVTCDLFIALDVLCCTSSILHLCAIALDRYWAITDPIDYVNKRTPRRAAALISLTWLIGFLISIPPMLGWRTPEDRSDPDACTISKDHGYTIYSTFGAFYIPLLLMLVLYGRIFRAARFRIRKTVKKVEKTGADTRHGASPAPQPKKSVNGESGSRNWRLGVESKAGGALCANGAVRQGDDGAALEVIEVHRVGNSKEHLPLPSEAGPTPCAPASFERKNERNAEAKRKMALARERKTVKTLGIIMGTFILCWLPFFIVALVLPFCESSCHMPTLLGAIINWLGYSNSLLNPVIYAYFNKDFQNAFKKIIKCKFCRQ
Procedure: (§2) Method 1: Competitive binding experiments were performed by the National Institute of Mental Health Psychoactive Drug Screening Program (NIMH PDSP) using described methods or 5-HT2A experiments performed using [3H]-ketanserin displacement in human 5-HT2A expressing membranes. Target compounds were dissolved in DMSO and an initial screen performed to assess displacement of the radioligand from target receptors at a concentration of 10,000 nM. […] For the Ki experiments, compounds were always tested in triplicate on separate plates. Each plate also contained a known ligand for the receptor as a positive control.

[3] = molecular target: 5-HT1B (Homo sapiens, UniProt P28222); assay: Competitive radioligand binding (NIMH PDSP)
Procedure: as §2

[4] = molecular target: 5-HT1D (Homo sapiens, UniProt P28221); assay: Competitive radioligand binding (NIMH PDSP)
Procedure: as §2

[5] = molecular target: 5-HT1e (Homo sapiens, UniProt P28566); assay: Competitive radioligand binding (NIMH PDSP)
Procedure: as §2

[6] = molecular target: T2, 5-HT2A (Homo sapiens, UniProt P28223); assay: Competitive radioligand binding (NIMH PDSP)
Procedure: as §2

[7] = molecular target: T3, 5-HT3 (Homo sapiens, UniProt P46098); assay: Competitive radioligand binding (NIMH PDSP)
T3 sequence (P46098 24-478): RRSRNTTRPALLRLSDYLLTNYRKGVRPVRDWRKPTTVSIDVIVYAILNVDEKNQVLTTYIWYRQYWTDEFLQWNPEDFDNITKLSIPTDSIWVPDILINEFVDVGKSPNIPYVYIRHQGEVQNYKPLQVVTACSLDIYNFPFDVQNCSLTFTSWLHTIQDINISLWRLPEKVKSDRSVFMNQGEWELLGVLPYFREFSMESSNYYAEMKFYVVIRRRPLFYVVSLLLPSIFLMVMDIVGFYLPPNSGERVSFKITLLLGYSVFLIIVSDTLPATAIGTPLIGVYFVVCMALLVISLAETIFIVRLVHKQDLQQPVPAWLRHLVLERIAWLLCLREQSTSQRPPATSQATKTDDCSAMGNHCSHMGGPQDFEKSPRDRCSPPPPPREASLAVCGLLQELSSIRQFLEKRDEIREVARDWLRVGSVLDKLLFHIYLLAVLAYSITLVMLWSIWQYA
Procedure: as §2

[8] = molecular target: T2, 5-HT2A; assay: Ca2+ flux assay, 5-HT2A; type: cell-based; design: expressed in transfected cells; conditions: for EC50: 5-HT2A EC50, nM, Ca2+ flux; for Emax: read-out: 5-HT2A Emax % 5-HT, Ca2+ flux
Procedure: as §1

[9] = molecular target: T4, 5-HT2B (Homo sapiens, UniProt P41595); assay: Ca2+ flux assay, 5-HT2B; type: cell-based; design: expressed in transfected cells; conditions: Ca2+ flux; for Emax: read-out: 5-HT2B Emax % 5-HT
Procedure: as §1

[10] = molecular target: T5, 5-HT2C (Homo sapiens, UniProt P28335); assay: Ca2+ flux assay, 5-HT2C; type: cell-based; design: expressed in transfected cells; conditions: for Emax: read-out: 5-HT2C Emax % 5-HT
T5 sequence (P28335 33-458): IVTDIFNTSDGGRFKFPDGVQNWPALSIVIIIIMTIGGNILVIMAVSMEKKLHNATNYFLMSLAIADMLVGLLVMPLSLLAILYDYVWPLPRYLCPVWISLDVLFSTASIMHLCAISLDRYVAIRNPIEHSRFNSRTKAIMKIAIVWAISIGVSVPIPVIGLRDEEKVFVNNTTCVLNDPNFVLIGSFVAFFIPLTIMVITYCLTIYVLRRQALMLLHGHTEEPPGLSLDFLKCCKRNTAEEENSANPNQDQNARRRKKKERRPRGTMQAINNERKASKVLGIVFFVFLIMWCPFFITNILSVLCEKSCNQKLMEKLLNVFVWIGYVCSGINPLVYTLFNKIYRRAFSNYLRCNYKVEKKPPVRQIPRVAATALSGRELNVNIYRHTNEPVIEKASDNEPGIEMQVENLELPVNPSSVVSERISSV
Procedure: as §1

[11] = molecular target: T4, 5-HT2B; assay: Competitive radioligand binding (NIMH PDSP); design: expressed in transfected cells
Procedure: as §2

[12] = molecular target: T5, 5-HT2C; assay: Competitive radioligand binding (NIMH PDSP); design: expressed in transfected cells
Procedure: as §2

[13] = molecular target: T2, 5-HT2A; assay: [3H]-ketanserin displacement, 5-HT2A membranes; type: binding; design: ES-313-M400UA (membranes); host or cells: CHO-K1; conditions: [3H]-ketanserin displacement (n = 2); read-out: 5-HT2A pKi Mean ± SEM (converted)
[14] = molecular target: T2, 5-HT2A; assay: cell-based; design: expressed in transfected cells; host or cells: HEK293T, transient; conditions: for EC50: BRET, mean ± SEM, read-out: 5-HT2A Gq dissociation pEC50 (converted); for Emax: read-out: 5-HT2A Gq Emax (% 5-HT), BRET, mean ± SEM
[15] = molecular target: T2, 5-HT2A; assay: cell-based; design: expressed in transfected cells; host or cells: HEK293T, transient; conditions: for EC50: BRET, mean ± SEM, read-out: 5-HT2A β-arrestin recruitment pEC50 (converted); for Emax: read-out: 5-HT2A β-arrestin Emax (% 5-HT), BRET, mean ± SEM

5-HT1B, sequence (P28222 whole entry, species assumed): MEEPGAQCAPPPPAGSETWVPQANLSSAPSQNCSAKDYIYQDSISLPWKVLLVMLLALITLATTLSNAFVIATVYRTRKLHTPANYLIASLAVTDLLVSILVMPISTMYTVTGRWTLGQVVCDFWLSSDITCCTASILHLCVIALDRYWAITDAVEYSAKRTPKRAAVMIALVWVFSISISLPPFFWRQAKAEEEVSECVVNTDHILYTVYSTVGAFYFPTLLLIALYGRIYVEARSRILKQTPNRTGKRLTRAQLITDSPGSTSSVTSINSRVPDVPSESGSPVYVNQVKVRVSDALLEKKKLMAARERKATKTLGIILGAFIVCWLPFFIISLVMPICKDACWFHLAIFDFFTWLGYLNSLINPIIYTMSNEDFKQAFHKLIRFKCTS
5-HT1e, sequence (P28566 whole entry, species assumed): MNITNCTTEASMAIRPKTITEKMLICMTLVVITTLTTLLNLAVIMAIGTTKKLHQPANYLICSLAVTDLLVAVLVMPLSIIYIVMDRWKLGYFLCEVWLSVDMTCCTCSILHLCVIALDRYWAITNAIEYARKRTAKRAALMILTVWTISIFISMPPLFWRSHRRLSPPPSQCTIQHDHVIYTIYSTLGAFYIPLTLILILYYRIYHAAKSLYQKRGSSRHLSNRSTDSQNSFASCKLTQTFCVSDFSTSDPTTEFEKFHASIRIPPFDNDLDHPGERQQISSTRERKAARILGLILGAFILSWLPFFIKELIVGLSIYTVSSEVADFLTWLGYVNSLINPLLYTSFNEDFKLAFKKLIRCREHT
T4 sequence (P41595 whole entry): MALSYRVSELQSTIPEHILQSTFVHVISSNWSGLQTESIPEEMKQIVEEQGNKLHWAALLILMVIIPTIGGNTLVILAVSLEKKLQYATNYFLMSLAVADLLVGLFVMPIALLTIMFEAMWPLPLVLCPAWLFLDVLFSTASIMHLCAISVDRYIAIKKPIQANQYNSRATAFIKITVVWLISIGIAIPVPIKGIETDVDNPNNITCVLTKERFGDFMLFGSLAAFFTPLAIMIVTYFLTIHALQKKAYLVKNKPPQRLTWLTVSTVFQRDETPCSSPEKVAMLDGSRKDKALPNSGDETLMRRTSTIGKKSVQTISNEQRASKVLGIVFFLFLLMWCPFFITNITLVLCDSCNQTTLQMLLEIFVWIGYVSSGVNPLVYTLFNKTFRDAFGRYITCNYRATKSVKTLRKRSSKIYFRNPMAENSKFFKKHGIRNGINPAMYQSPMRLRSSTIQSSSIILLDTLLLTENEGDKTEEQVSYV
T2 sequence (P28223 whole entry): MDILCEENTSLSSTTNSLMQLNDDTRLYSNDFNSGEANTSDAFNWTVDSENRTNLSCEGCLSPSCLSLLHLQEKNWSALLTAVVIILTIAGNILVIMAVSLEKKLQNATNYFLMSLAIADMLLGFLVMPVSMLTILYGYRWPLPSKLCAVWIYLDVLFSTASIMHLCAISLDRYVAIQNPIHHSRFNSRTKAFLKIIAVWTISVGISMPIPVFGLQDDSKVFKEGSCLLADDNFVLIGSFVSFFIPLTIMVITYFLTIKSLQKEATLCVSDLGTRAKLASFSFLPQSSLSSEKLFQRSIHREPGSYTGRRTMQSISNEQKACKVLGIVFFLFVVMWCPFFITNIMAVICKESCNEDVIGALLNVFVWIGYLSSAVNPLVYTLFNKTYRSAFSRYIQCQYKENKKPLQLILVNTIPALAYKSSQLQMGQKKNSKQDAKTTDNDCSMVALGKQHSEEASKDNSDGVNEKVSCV
5-HT1D, sequence (P28221 whole entry, species assumed): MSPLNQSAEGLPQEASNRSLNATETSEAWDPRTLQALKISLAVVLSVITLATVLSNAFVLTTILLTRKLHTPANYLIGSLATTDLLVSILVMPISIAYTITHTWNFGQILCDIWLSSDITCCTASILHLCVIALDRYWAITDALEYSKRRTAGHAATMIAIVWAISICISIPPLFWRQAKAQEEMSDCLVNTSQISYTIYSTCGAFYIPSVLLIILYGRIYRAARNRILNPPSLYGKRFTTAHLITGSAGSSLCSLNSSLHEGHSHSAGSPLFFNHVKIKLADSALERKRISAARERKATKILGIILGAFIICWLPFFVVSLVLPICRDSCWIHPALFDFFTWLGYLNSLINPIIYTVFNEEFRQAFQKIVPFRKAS

| Compound | 5-HT2A/5-HT2c Selectivity Factor ΔLog(Emax/EC50) [1] | Ki [2] [nM] | Ki [3] [nM] | Ki [4] [nM] | Ki [5] [nM] | Ki [6] [nM] | Ki [7] [nM] | EC50 [8] [nM] | Emax [8] [%] | 5-HT2B EC50, nM [9] | Emax [9] [%] | EC50 ([10]; 5-HT2C EC50, nM) [nM] | Emax [10] [%] | Ki [11] [nM] | Ki [12] [nM] | Ki [13] [nM] | EC50 [14] [nM] | Emax [14] [%] | EC50 [15] [nM] | Emax [15] [%] | also measured |
| --- | --- | --- | --- | --- | --- | --- | --- | --- | --- | --- | --- | --- | --- | --- | --- | --- | --- | --- | --- | --- | --- |
| COc1cc([N+](=O)[O-])c(OC)cc1CCNCc1cccc(F)c1 [25N-NB-3-F (24), [2-(2,5-dimethoxy-4-nitrophenyl)ethyl][(3-fluorophenyl)methyl]amine] | 154.4 | > 10000 | > 10000 | > 10000 | > 10000 | 3.02 | > 10000 | 2.25 | 85 ± 2 | No activity | < 10 | 149 | 54 ± 1 | 42.7 | 224 |  |  |  |  |  |  |
| COc1cc([N+](=O)[O-])c(OC)cc1CCNCc1ccc(F)cc1 [25N-NB-4-F (25), [2-(2,5-dimethoxy-4-nitrophenyl)ethyl][(4-fluorophenyl)methyl]amine] | 43.3 | > 10000 | > 10000 | > 10000 | > 10000 | 6.17 | > 10000 | 19.7 | 48 ± 2 | No activity | < 10 | 413 | 21 ± 2 | 85.1 | 813 |  |  |  |  |  |  |
| COc1cc([N+](=O)[O-])c(OC)cc1CCNCc1ccc(C)cc1 [25N-NB-4-Me (23), [2-(2,5-dimethoxy-4-nitrophenyl)ethyl] [(4-methylphenyl)methyl]amine] | 66.1 | 2630 | > 10000 | > 10000 | > 10000 | 5.5 | > 10000 | 38.3 | 42 ± 3 | No activity | < 10 | 844 | 14 ± 1 | 52.5 | 631 |  |  |  |  |  |  |
| COc1cc([N+](=O)[O-])c(OC)cc1CCNCc1cccc2c1OC(F)(F)O2 [25N-NBMDF2 (13), [(2,2-difluoro-2H-1,3-benzodioxol-4-yl)methyl][2-(2,5-dimethoxy-4-nitrophenyl)ethyl]amine] | 252.5 | 1000 | > 10000 | > 10000 | > 10000 | 1.2 | > 10000 | 3.02 | 86 ± 2 | No activity | < 10 | 431 | 49 ± 4 | 46.8 | 214 |  |  |  |  |  | EC50 ([10]; 5-HT2C (pEC50 ± SEM)): 437 nM |
| COc1cc(OC)c(OC)cc1CCNCc1ccc(F)c2ccccc12 [(67)] |  |  |  |  |  |  |  |  |  |  |  |  |  |  |  | 50.1 | 22.9 | 41 ± 1.3 | 10.2 | 73.6 ± 3.2 |  |
| COc1cc(OC)c(OC)cc1CCNCc1cccc(C)c1O [(68)] |  |  |  |  |  |  |  |  |  |  |  |  |  |  |  | 30.9 | 3.24 | 63.4 ± 0.8 | 1.41 | 89.1 ± 2.3 |  |
| COc1cc(OC)c(OC)cc1CCNCc1ccccc1C1CC1 [(70)] |  |  |  |  |  |  |  |  |  |  |  |  |  |  |  | 70.8 | 3.63 | 97.5 ± 1.5 | 6.92 | 116 ± 4.4 |  |
